From PubChem BioAssay AID1053162 (Broad Institute, 2014)

Test system: HepG2 PCSK9 mRNA, RT-qPCR, 24 h
Assay: cholesterol-dependence of PCSK9 transcript levels – cell-based, HepG2, RT-PCR, cherry-picked dose, mechanism study for Trib1 inducer project, late-stage follow-up (AID 1053162)
Conditions: hits give high values

Question: With `CN1C(=O)c2cc(NC(=O)c3ccc(C(F)(F)F)cc3)ccc2OC[C@@H]2O[C@H](CC(=O)NC3Cc4ccccc4C3)CC[C@@H]21` as the molecule, how does the fold induction read?
Answer: 2.5
